Square brackets hold non-standard residues; d marks the D form. Peptide text beside a SMILES is read from it. * marks the point of attachment. ξ: configuration not given here. Thr(3ξ) = CC(O)[C@H](N)C(=O)O; X1 = CN(CCC(=O)*)c1ccnc(CS)c1; ξR = N=C(N)NCCCC(N)C(=O)O; ξS = NC(CO)C(=O)O
Key:
Type in all cases: biochemical
[1] = target: T1, histones (reconstituted nucleosome) (Homo sapiens, UniProt P04908+P06899+P62805+P68431); experiment: Protein selective acetylation of reconstituted nucleosome mixed with cytoplasm fraction (western blotting, acetylated lysine antibody); details: reconstituted nucleosome + cytoplasm fraction 15%, Ligand-DSH 2 to 5 μM, acyl donor 1 mM, TCEP 100 μM, room temperature, 5 hours; FIG. 3A
T1 construct: made in house
Text: (§1) Proteins were separated on a 4-20% SDS-PAGE gel, and transferred to a PVDF membrane, followed by blocking with 5% skim milk suspended in TBST for the reaction between the PVDF membrane and primary antibodies. The primary antibodies used were as follows.
(§2) Acetylated-lysine antibody (#9441, Cell Signaling), anti-acetyl Histone H4 (Lys77) (ABE186, Millipore), anti-acetyl Histone H2B (Lys120) (ab176430, Abcam), malonylated-lysine antibody (PTM-901, PTM Biolabs), glutarylated-lysine antibody (PTM-1151, PTM Biolabs), butyrylated-lysine antibody (PTM-301, PTM Biolabs), 2-hydroisobutyrylated antibody (PTM-801, PTM Biolabs), streptavidin-HRP (#3999S, Cell Signaling).
(§3) After washing with TBST, a secondary antibody (Anti-Rabbit IgG, HRP-linked, NA934V, GE) was reacted. The PVDF membrane was treated with a chemilluminescent detection reagent Luminata Forte Western HRP Substrate (Millipore), and the detection was performed using ImageQuant LAS 4000 (GE healthcare life sciences).
(§4) A buffer solution (20 mM Tris-HCl, pH 7.5) containing a reconstituted nucleosome (33 μg/mL 601 DNA) and a cytoplasm fraction (15%) was added with Ligand-DSH (2 to 5 μM), acyl CoA (1 mM), and TCEP (100 μM), followed by reaction at room temperature for 5 hours. Thereafter, western blotting was performed.
First, protein selectivity was evaluated. A reconstituted nucleosome prepared in accordance with a known method (Tachiwana, H. et al., Proceedings of the National Academy of Sciences of the United States of America 2010, 107, 10454-10459) and cytoplasm fractions acquired from living cells were mixed. Then, evaluation was carried out on whether or not the newly developed catalyst could selectively acetylate histones by western blotting using an acetylation lysine antibody (FIG. 3A).

[2] = target: T2, reconstituted nucleosome (H2BK120, H4K77) (Homo sapiens, UniProt P04908+P06899+P62805+P68431); experiment: Lysine residue selective acetylation of reconstituted nucleosome (western blotting, residue-selective acetylated lysine antibodies); details: with acetyl CoA, FIG. 3B
T2 construct: made in house
Text: as §1, §2
as §3, with “sciences). […]” for “sciences).”
Next, the selectivity of lysine residues in histones was evaluated. A similar reaction was evaluated by western blotting using a residue-selective acetylation lysine antibody.

reconstituted nucleosome = target: T3, reconstituted nucleosome (Homo sapiens, UniProt P04908+P06899+P62805+P68431); experiment: Yield determination by LC-MS/MS and exhaustive analysis of lysine residue selectivity; details: for lysine residue selectivity: acetylation of reconstituted nucleosome, FIGS. 5 and 6
T3 construct: made in house
Protocol: Cooled trichloroacetic acid (30 μL) was added, and the resultant was placed on ice for 30 minutes. After the centrifugation (4° C., 15000 rpm, 5 minutes), the supernatant was removed. After further centrifugation (4° C., 15000 rpm, 1 minute), the supernatant was again removed. Cooled acetone (450 μL) was added. After the centrifugation (4° C., 15000 rpm, 5 minutes), the supernatant was removed. After further centrifugation (4° C., 15000 rpm, 1 minute), the supernatant was again removed. The above procedure was repeated once more. […] A 1M sulfuric acid (25 μL) was added and placed on ice for 1 hour, followed by centrifugation (4° C., 15000 rpm, 5 minutes), and the supernatant was collected. Centrifugation (4° C., 15000 rpm, 1 minute) was performed again to collect the supernatant to combine with the earlier supernatant. The resultant was added with acetone (500 μL), followed by sufficient stirring, and was placed overnight at −30° C. After the centrifugation (4° C., 15000 rpm, 5 minutes), the supernatant was removed. After further centrifugation (4° C., 15000 rpm, 1 minute), the supernatant was again removed. After drying was performed with a centrifugal evaporator for 10 minutes, an aqueous solution of ammonium bicarbonate (0.1 M, 20 μL) was added. The resultant was added with a mixture of propionic anhydride and methanol (1:3, 20 μL) prepared immediately before, further added with ammonia water (15 μL), and was placed at room temperature for 30 minutes. Drying was performed with a centrifugal evaporator for 75 minutes, followed by treatment with a digestive enzyme.
In the case of trypsin: an aqueous solution of ammonium bicarbonate (0.1M, 50 μL) and trypsin (1 μg) were added, followed by reaction at 37° C. for 21 hours.
In the case of chymotrypsin: 100 mM Tris-HCl, 10 mM CaCl2 (50 μL, pH8.0), and chymotrypsin (8 μg) were added, followed by reaction at 25° C. for 21 hours.
A 5% aqueous solution of formic acid (25 μL) was added, followed by drying with a centrifugal evaporator for 75 minutes. The residue was dissolved in a 0.1% aqueous solution of formic acid (15 μL), and the resultant was used for LC-MS/MS.
Eksigent ekspert™ MicroLC 200
ESI-Q-TOF MS, positive-ion mode.
Precursor ions are designated, and for each of the precursor ions, 2 to 4 MS/MS fragment ions having the highest strength were selected. Ion extraction (±0.5 Da) was performed for the designated precursor ions and the MS/MS fragment ions, and the yield was calculated in accordance with the equation below.
For a chromatogram obtained by performing measurement in an Information Dependent Acquisition Mode, the yield was determined in accordance with the following equation from the peak area subjected to ion extraction (±0.5 Da) after designating the precursor ions. yield (%)=[A/A+P]×100 (here, A represents a peak area of an acetylated peptide and P represents a peak area of a propionylated peptide)

[3] = target: T1, histones (reconstituted nucleosome); experiment: Acylation other than acetylation with catalyst and various acyl CoA (western blotting); details: catalyst with the corresponding acyl CoA; FIG. 9
Text: as §1, §2, §3, §4
In light of the above, a study was carried out on whether or not acylation other than acetylation would be possible using the developed catalyst.

cytoplasm proteins = experiment: Comparison of reactivity of acetyl group donors with cytoplasm proteins (western blotting, anti-acetylated lysine antibody); details: acetyl group donor 1 mM, cytoplasm fraction 20%, room temperature, 10 hours; FIG. 1B
Protocol: Approximately 10^6 cells were detached from a culture dish by a trypsin treatment. After washed with PBS, the cell pellets were suspended in a cooled, cell lysis buffer [50 mM Tris (pH 7.5), 300 mMNaCl, 0.3% Triton X-100, protease inhibitor cocktail, and 1 mM PMSF], and placed on ice for 30 minutes. After the centrifugation (4° C., 1500 rpm, 2 minutes), the supernatant was collected as a cytoplasm fraction.
as §1, §2
as §3, with “sciences). […]” for “sciences).”

[4] = Ligand-DSH 2 μM, acetyl CoA 1 mM, TCEP 100 μM, 5 hours

CC(=O)NCCSC(C)=O
histone-selective acetylation [1]: histone-selective acetylation was observed in the same way

CSCC[C@H](NC(=O)CNC(=O)CCN(C)c1ccnc(CS)c1)C(=O)NC(CCCNC(=N)N)C(=O)N[C@@H](CC(C)C)C(=O)NC(CCCNC(=N)N)C(=O)N[C@@H](CO)C(=O)NCC(=O)N[C@@H](CCCNC(=N)N)C(=O)NC(CO)C(=O)N[C@H](C(=O)NCC(N)=O)C(C)O (stereo partly shown) [LANA-DSH] (X1-GM[ξR]L[ξR]SGR[ξS][Thr(3ξ)]G-NH2)
histone-selective acetylation [1]: histone-selective acetylation was achieved
acetylation of H2BK120 (western blotting) ([2]; anti-acetyl Histone H2B (Lys120)): strongly acetylated
acetylation yield of H2BK120 (reconstituted nucleosome; [4]): 54%
lysine residue selectivity (reconstituted nucleosome): extremely high
2-hydroxy-iso-butyrylation [3]: enabled
biotinylation [3]: enabled
butyrylation [3]: enabled
glutarylation [3]: enabled
malonylation [3]: enabled

CON(C(C)=O)C(C)=O [NMD, N-methoxydiacetamide]
non-selective acetylation of cytoplasm proteins (cytoplasm proteins): non-selectively acetylated a large quantity of protein

CN(CCCNC(=O)CCN(C)c1ccnc(CS)c1)CCCNC(=O)c1cc(NC(=O)c2cc(NC(=O)c3cc(NC(=O)c4nc(NC(=O)CCCNC(=O)c5cc(NC(=O)c6cc(NC(=O)c7cc(NC(=O)c8nccn8C)cn7C)cn6C)cn5C)cn4C)cn3C)cn2C)cn1C [PIP-DSH]
histone-selective acetylation [1]: histone-selective acetylation was achieved
acetylation of H4K77 (western blotting) ([2]; anti-acetyl Histone H4 (Lys77)): strongly acetylated
acetylation yield of H3K36 (reconstituted nucleosome; [4]): 14%
acetylation yield of H3K56 (reconstituted nucleosome; [4]): 9%
acetylation yield of H4K77 (reconstituted nucleosome; [4]): 14%
lysine residue selectivity (reconstituted nucleosome): high

CC(=O)SCCNC(=O)CCNC(=O)[C@H](O)C(C)(C)COP(=O)(O)OP(=O)(O)OC[C@H]1O[C@@H](n2cnc3c(N)ncnc32)[C@H](O)[C@@H]1OP(=O)(O)O [acetyl CoA, reference compound]
non-selective acetylation of cytoplasm proteins (cytoplasm proteins): did not cause such non-selective acetylation
histone-selective acetylation [1]: acetylation did not proceed
